In patent US6737383B1, “Herbicidal oxadiazolidines” (priority 1999, dated 2004):

How the values were obtained:
blackgrass = assay: Test B pre/postemergence blackgrass; type: in vivo, Alopecurus myosuroides
In short: (§1)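 Herbicidal effect was estimated by eye on a ten-point control scale after plants spent twelve to sixteen days in a greenhouse following soil or foliar treatment. Foliar sprays targeted plants at one to four leaves; all doses were formulated in a non-phytotoxic solvent with surfactant.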

duck salad = assay: Test B flood test duck salad; type: in vivo, Heteranthera limosa
In short: (§2)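 Plants were grown to the 2-leaf stage before treatment with test chemical, then held in a greenhouse for twelve to sixteen days. Injury was visually rated against untreated controls on a 0–10 scale, where 0 is no effect and 10 is complete control.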

pigweed = assay: Test B pre/postemergence pigweed; type: in vivo, Amaranthus retroflexus
In short: as §1

surinam grass = assay: Test B pre/postemergence surinam grass; type: in vivo, Brachiaria decumbens
In short: as §1

cocklebur = assay: Test B pre/postemergence cocklebur; type: in vivo, Xanthium strumarium
In short: as §1

rape = assay: Test B pre/postemergence rape; type: in vivo, Brassica napus
In short: as §1

velvetleaf = assay: Test B pre/postemergence velvetleaf; type: in vivo, Abutilon theophrasti
In short: as §1

purple nutsedge = assay: Test B pre/postemergence purple nutsedge; type: in vivo, Cyperus rotundus
In short: as §1

morningglory = assay: Test B pre/postemergence morningglory; type: in vivo, Ipomoea hederacea
In short: as §1

bamyardgrass = assay: Test B flood test barnyardgrass; type: in vivo, Echinochloa crus-galli
In short: as §2

sugar beet = assay: Test B pre/postemergence sugar beet; type: in vivo, Beta vulgaris
In short: as §1

corn = assay: Test B pre/postemergence corn; type: in vivo, Zea mays
In short: as §1

bedstraw = assay: Test B pre/postemergence bedstraw; type: in vivo, Galium aparine
In short: as §1

rice = assay: Test B flood test rice; type: in vivo, Oryza sativa
In short: as §2

giant foxtail = assay: Test B pre/postemergence giant foxtail; type: in vivo, Setaria faberii
In short: as §1

[1] = Postemergence, Rate 125 g/ha, scale of 0 to 10 where 0 is no effect and 10 is complete control
[2] = Preemergence, Rate 62 g/ha, scale 0 to 10 (0 no effect, 10 complete control)
[3] = Preemergence, Rate 125 g/ha, 0 is no effect, 10 is complete control
[4] = Preemergence, Rate 250 g/ha, scale 0 to 10, 0 is no effect, 10 is complete control
[5] = Preemergence, Rate 500 g/ha, scale 0 to 10 (0 no effect, 10 complete control)
[6] = Rate 62 g/ha, Postemergence, scale of 0 to 10 where 0 is no effect and 10 is complete control
[7] = Rate 250 g/ha, Postemergence, scale 0 to 10, 0 is no effect, 10 is complete control
[8] = Rate 500 g/ha, Postemergence, scale 0 to 10
[9] = Postemergence (flood test species), Rate 125 g/ha, scale of 0 to 10 where 0 is no effect and 10 is complete control
[10] = Rate 62 g/ha, Postemergence section, flood test species, scale of 0 to 10 where 0 is no effect and 10 is complete control
[11] = Rate 250 g/ha, Postemergence (flood test), scale 0 to 10, 0 is no effect, 10 is complete control
[12] = Rate 500 g/ha, listed under Postemergence (flood test species), scale 0 to 10

CC(C)N(C(=O)n1oc(=O)n(Cc2ccccc2Cl)c1=O)c1ccc(F)cc1 [Compound 140]
5: Bedstraw plant response rating (bedstraw; [1]) | Plant response rating, Bedstraw (bedstraw; [7])
3: Blackgrass plant response rating (blackgrass; [1]) | Blackgrass plant response rating (blackgrass; [6]) | Redroot pigweed plant response rating (pigweed; [8]) | Plant response rating, Cocklebur (cocklebur; [7])
1: Redroot pigweed plant response rating (pigweed; [1]) | B. signalgrass plant response rating (surinam grass; Rate 500 g/ha, Postemergence, scale of 0 to 10 where 0 is no effect and 10 is complete control) | Plant response rating, Rape (rape; [7]) | Sugarbeets plant response rating (sugar beet; [5]) | Giant foxtail plant response rating (giant foxtail; [1]) | Giant foxtail plant response rating (giant foxtail; [2])
4: Blackgrass plant response rating (blackgrass; [4]) | Blackgrass plant response rating (blackgrass; [5]) | Plant response rating, Blackgrass (blackgrass; [7]) | Cocklebur plant response rating (cocklebur; [8]) | Morningglory plant response rating (morningglory; [6]) | Bedstraw plant response rating (bedstraw; [6]) | Rice plant response rating (rice; [12]) | Plant response rating, Giant foxtail (giant foxtail; [7])
2: Plant response rating, Redroot pigweed (pigweed; [7]) | B. signalgrass plant response rating (surinam grass; [5]) | Rape plant response rating (rape; [8]) | Velvetleaf plant response rating (velvetleaf; [8]) | Plant response rating, Barnyardgrass (bamyardgrass; [11]) | Plant response rating, Rice (rice; [11])
0: Blackgrass plant response rating (blackgrass; [2]) | Blackgrass plant response rating (0 to 10 scale) (blackgrass; [3]) | Ducksalad plant response rating (duck salad; [9]) | Ducksalad plant response rating (duck salad; [10]) | Plant response rating, Ducksalad (duck salad; [11]) | Ducksalad plant response rating (duck salad; [12]) | Redroot pigweed plant response rating (pigweed; [2]) | Redroot pigweed plant response rating (0 to 10 scale) (pigweed; [3]) | Redroot pigweed plant response rating (pigweed; [4]) | Redroot pigweed plant response rating (pigweed; [5]) | Redroot pigweed plant response rating (pigweed; [6]) | B. signalgrass plant response rating (surinam grass; [1]) | B. signalgrass plant response rating (surinam grass; [2]) | B. signalgrass plant response rating (0 to 10 scale) (surinam grass; [3]) | B. signalgrass plant response rating (surinam grass; [4]) | B. signalgrass plant response rating (surinam grass; [6]) | Plant response rating, B. signalgrass (surinam grass; [7]) | Cocklebur plant response rating (cocklebur; [1]) | Cocklebur plant response rating (cocklebur; [2]) | Cocklebur plant response rating (0 to 10 scale) (cocklebur; [3]) | Cocklebur plant response rating (cocklebur; [4]) | Cocklebur plant response rating (cocklebur; [5]) | Cocklebur plant response rating (cocklebur; [6]) | Rape plant response rating (rape; [1]) | Rape plant response rating (rape; [2]) | Rape plant response rating (0 to 10 scale) (rape; [3]) | Rape plant response rating (rape; [4]) | Rape plant response rating (rape; [5]) | Rape plant response rating (rape; [6]) | Velvetleaf plant response rating (velvetleaf; [1]) | Velvetleaf plant response rating (velvetleaf; [2]) | Velvetleaf plant response rating (0 to 10 scale) (velvetleaf; [3]) | Velvetleaf plant response rating (velvetleaf; [4]) | Velvetleaf plant response rating (velvetleaf; [5]) | Velvetleaf plant response rating (velvetleaf; [6]) | Plant response rating, Velvetleaf (velvetleaf; [7]) | Nutsedge plant response rating (purple nutsedge; [1]) | Nutsedge plant response rating (purple nutsedge; [2]) | Nutsedge plant response rating (0 to 10 scale) (purple nutsedge; [3]) | Nutsedge plant response rating (purple nutsedge; [4]) | Nutsedge plant response rating (purple nutsedge; [5]) | Nutsedge plant response rating (purple nutsedge; [6]) | Plant response rating, Nutsedge (purple nutsedge; [7]) | Nutsedge plant response rating (purple nutsedge; [8]) | Morningglory plant response rating (morningglory; [2]) | Morningglory plant response rating (0 to 10 scale) (morningglory; [3]) | Morningglory plant response rating (morningglory; [4]) | Morningglory plant response rating (morningglory; [5]) | Barnyardgrass plant response rating (bamyardgrass; [9]) | Barnyardgrass plant response rating (bamyardgrass; [10]) | Sugarbeets plant response rating (sugar beet; [1]) | Sugarbeets plant response rating (sugar beet; [2]) | Sugarbeets plant response rating (0 to 10 scale) (sugar beet; [3]) | Sugarbeets plant response rating (sugar beet; [4]) | Sugarbeets plant response rating (sugar beet; [6]) | Plant response rating, Sugarbeets (sugar beet; [7]) | Sugarbeets plant response rating (sugar beet; [8]) | Corn plant response rating (corn; [1]) | Corn plant response rating (corn; [2]) | Corn plant response rating (0 to 10 scale) (corn; [3]) | Corn plant response rating (corn; [4]) | Corn plant response rating (corn; [5]) | Corn plant response rating (corn; [6]) | Plant response rating, Corn (corn; [7]) | Corn plant response rating (corn; [8]) | Bedstraw plant response rating (bedstraw; [2]) | Bedstraw plant response rating (0 to 10 scale) (bedstraw; [3]) | Bedstraw plant response rating (bedstraw; [4]) | Bedstraw plant response rating (bedstraw; [5]) | Rice plant response rating (rice; [9]) | Rice plant response rating (rice; [10]) | Giant foxtail plant response rating (giant foxtail; [6])
8: Morningglory plant response rating (morningglory; [1]) | Plant response rating, Morningglory (morningglory; [7]) | Morningglory plant response rating (morningglory; [8]) | Barnyardgrass plant response rating (bamyardgrass; Rate 500 g/ha, listed under Postemergence (flood test species), scale 0 to 10, 0 no effect, 10 complete control) | Giant foxtail plant response rating (0 to 10 scale) (giant foxtail; [3])
6: Blackgrass plant response rating (blackgrass; [8]) | Bedstraw plant response rating (bedstraw; Rate 500 g/ha, Postemergence, scale 0 to 10, 0 no effect, 10 complete control) | Giant foxtail plant response rating (giant foxtail; [8])
10: Giant foxtail plant response rating (giant foxtail; [5])
